The text below walks through data of patent US4160015A, “2,4,6-Triiodobenzoic acid derivatives and their use as x-ray contrast agents” (priority 1978, dated 1979).

A short description of series [1]: crystal formation on standing (sodium salt, five months at 5°-10° C.). Type of series: physicochemical. Conditions: standing for over five months at 5°-10° C.
Series [2] can be described thus: water solubility. The following applies: for water solubility: 25° C. Type of series: physicochemical.
A short description of series [3]: Acute Intravenous Toxicity Studies in Mice. Conditions: mouse, in vivo, lateral tail vein, solutions containing 28.27% iodine, 1 ml./min., seven day observation, read-out: LD50 of N-Methylglucamine Salt, I.V. (Mice). How it is done:
(§1) Toxicity evaluations were carried out on solutions of the N-methylglucaminesalt of 5-gluconamido-2,4,6-triiodo-N-methylisophthalamic acid by three different techniques and on solutions of the N-methylglucamine salt of 3-acetamido-2,4,6-triiodo-5-trishydroxymethylacetamido-benzoic acid by two different techniques. The techniques utilized are outlined below.
Swiss Albino mice (Charles River) were dosed in the lateral tail vein with solutions of the iodinated compound containing 28.27% of iodine, injected at the rate of 1 ml./min. […] The LD50 values were calculated by the method of Litchfield and Wilcoxon (J. of Pharmac. and Exptl. Therap. 96:99-113, 1949).

The nature of series [4]: Intracerebral Toxicity in Mice. The following applies: mouse, in vivo, fixed volumes of various concentrations, seven day observation, read-out: LD50 of N-Methylglucamine Salt, Intracerebral (Mice). As for the experimental part:
as §1
Swiss Albino mice (Charles River) were used. Fixed volumes of solutions of various concentrations of the iodinated compounds were injected intracerebrally via a 27 gauge needle, (1/4 inch length) according to the method of Haley, et al. (Br. J. of Pharmac. 12:12-15, 1957). The animals were observed immediately after injections and daily throughout a seven day observation period. The LD50 values were calculated by the method of Litchfield and Wilcoxon (J. of Pharmac. and Exptl. Therap. 96:99-113, 1949).

Series [5] is described as follows: Intracisternal Toxicity in Rats. Also on record: species or system Sprague Dawley (Carworth) rats. The following applies: rat, in vivo, two day observation, read-out: LD50 of N-Methylglucamine Salt, Intracisternal (Rats). As for the experimental part: as §1
Sprague Dawley (Carworth) rats were used. The method used is a variation of the procedure outlined by Melartin et al. (Invest. Rad. 5:13-21, 1970). After dosing, the animals were housed individually, and observed for immediate reactions and periodically for a two day observation period. The LD50 values were calculated according to the method of Litchfield and Wilcoxon, (J. of Pharmac. and Exptl. Therap. 96:99-115, 1949).

Where a name gives a salt, the structure may show the parent alone. Where only a bound is given, the exact number is not on record here.

Consider `CNC(=O)c1c(I)c(NC(=O)[C@H](O)[C@@H](O)[C@H](O)[C@H](O)CO)c(I)c(C(=O)O)c1I` [Example 2, Sodium 5-Gluconamido-2,4,6-triiodo-N-methylisophthalamate], for which the “crystals formed after standing” value in series [1] was “no crystals formed”. In series [2] (water, read-out: solubility of the sodium salt), the solubility (as a rule, the dissolved amount per volume that the medium holds) is > 1010 mg/mL.

`CC(=O)Nc1c(I)c(NC(=O)C(CO)(CO)CO)c(I)c(C(=O)O)c1I` [Example 3, 3-Acetamido-2,4,6-triiodo-5-(trishydroxymethyl)acetamido-benzoic Acid]: the water solubility in series [2] is on record as 2-2.5 % w/v.

As for `CC(=O)Nc1c(I)c(NC(=O)C(CO)(CO)CO)c(I)c(C(=O)O)c1I` [Example 4, sodium salt of 3-acetamido-2,4,6-triiodo-5-trishydroxymethylacetamido-benzoic acid], the water solubility in series [2] is on record as 63.5-66 % w/v.

With `CC(=O)Nc1c(I)c(NC(=O)C(CO)(CO)CO)c(I)c(C(=O)O)c1I` [N-methylglucamine salt of 3-acetamido-2,4,6-triiodo-5-trishydroxymethylacetamido-benzoic acid], the 50% lethal dose (LD50) (as a rule, the dose at which mortality reaches 50%) at 168 h was determined as 6000 mg/kg in series [3] and 150 mg/kg in series [4].

For `CNC(=O)c1c(I)c(NC(=O)[C@H](O)[C@@H](O)[C@H](O)[C@H](O)CO)c(I)c(C(=O)O)c1I` [N-methylglucaminesalt of 5-gluconamido-2,4,6-triiodo-N-methylisophthalamic acid], the LD50 at 168 h in series [3] was determined as 5200 mg/kg; in series [4], 620 mg/kg. Also, the LD50 at 48 h in series [5] is 355 mg/kg.
